Earlier results as cited in US9006270B2, “Polymorphs of (S)-pyrrolidine-1,2-dicarboxylic acid 2-amide 1-({4-methyl-5-[2-(2,2,2-trifluoro-1,1-dimethyl-ethyl)-pyridin-4-yl]-thiazol-2-yl}-amide” (Novartis AG, priority 2011, dated 2015).

Test system: phosphatidylinositol 3-kinase (PI3K)
Conditions: described in WO 2010/029082

- activity against the phosphatidylinositol 3-kinase (PI3K): demonstrated activity
SMILES: Cc1nc(NC(=O)N2CCC[C@H]2C(N)=O)sc1-c1ccnc(C(C)(C)C(F)(F)F)c1 [Compound I, (S)-pyrrolidine-1,2-dicarboxylic acid 2-amide 1-(4-methyl-5-[2-(2,2,2-trifluoro-1,1-dimethyl-ethyl)-pyridin-4-yl]-thiazol-2-yl)-amide]
